{"source": "patent US7273847B2", "about": "“Peptides with antioxidant and antimicrobial properties” (priority 2000, dated 2007)", "molecules": {"B1": {"name": "recombinant mouse SP-D: recombinant mouse SP-D (protein)", "chain": "AEMKSLSQRSVPNTCTLVMCSPTENGLPGRDGRDGREGPRGEKGDPGLPGPMGLSGLQGPTGPVGPKGENGSAGEPGPKGERGLSGPPGLPGIPGPAGKEGPSGKQGNIGPQGKPGPKGEAGPKGEVGAPGMQGSTGAKGSTGPKGERGAPGVQGAPGNAGAAGPAGPAGPQGAPGSRGPPGLKGDRGVPGDRGIKGESGLPDSAALRQQMEALKGKLQRLEVAFSHYQKAALFPDGRSVGDKIFRTADSEKPFEDAQEMCKQAGGQLASPRSATENAAIQQLITAHNKAAFLSMTDVGTEGKFTYPTGEPLVYSNWAPGEPNNNGGAENCVEIFTNGQWNDKACGEQRLVICEF"}, "B2": {"name": "ApoAIV: antioxidant serum lipoprotein ApoAIV (protein, UniProt P06727 21-396, looked up)", "Apolipoprotein A-IV": "EVSADQVATVMWDYFSQLSNNAKEAVEHLQKSELTQQLNALFQDKLGEVNTYAGDLQKKLVPFATELHERLAKDSEKLKEEIGKELEELRARLLPHANEVSQKIGDNLRELQQRLEPYADQLRTQVSTQAEQLRRQLTPYAQRMERVLRENADSLQASLRPHADELKAKIDQNVEELKGRLTPYADEFKVKIDQTVEELRRSLAPYAQDTQEKLNHQLEGLTFQMKKNAEELKARISASAEELRQRLAPLAEDVRGNLRGNTEGLQKSLAELGGHLDQQVEEFRRRVEPYGENFNKALVQQMEQLRQKLGPHAGDVEGHLSFLEKDLRDKVNSFFSTFKEKESQDKTLSLPELEQQQEQQQEQQQEQVQMLAPLES"}, "B3": {"name": "alkylated SP-D: rat SP-D alkylated by incubation with 0.5 M iodoacetamide (protein, UniProt P35248 20-374, looked up)", "Pulmonary …": "AEMKTLSQRSITNTCTLVLCSPTENGLPGRDGRDGREGPRGEKGDPGLPGPMGLSGLPGPRGPVGPKGENGSAGEPGPKGERGLVGPPGSPGISGPAGKEGPSGKQGNIGPQGKPGPKGEAGPKGEVGAPGMQGSAGAKGPAGPKGERGAPGEQGAPGNAGAAGPAGPAGPQGAPGSRGPPGLKGDRGAPGDRGIKGESGLPDSAALRQQMEALNGKLQRLEAAFSRYKKAALFPDGQSVGDKIFRAANSEEPFEDAKEMCRQAGGQLASPRSATENAAVQQLVTAHSKAAFLSMTDVGTEGKFTYPTGEALVYSNWAPGEPNNNGGAENCVEIFTNGQWNDKACGEQRLVICEF", "modifications": "alkylated with iodoacetamide", "notes": "rat SP-D alkylated by incubation with 0.5 M iodoacetamide"}}, "key": {"GBS": {"tested_on": "GBS", "experiment": "Radial diffusion growth inhibition in agar", "type": "cell-based", "details": "0.5 and 5.0 μg added", "experimental": "(§1) A radial diffusion method was therefore used to examine the effect of the collectins and their individual structural domains on the growth of E. coli that were immobilized in agar (FIGS. 8,9). Wells were bored into plates containing agar impregnated with 2×10^6 E. coli/ml or GBS. Proteins to be tested were introduced into the wells and the plates were incubated overnight at 37° C."}, "E. coli K12": {"tested_on": "E. coli K12", "experiment": "Radial diffusion growth inhibition in agar", "type": "cell-based", "details": "for Inhibition of E. coli growth in presence of anti-mouse SP-A / anti-mouse SP-D antibodies / Inhibition of E. coli growth in presence of excess LPS vesicles: radial diffusion; for Inhibition of E. coli growth in presence of excess LPS vesicles: for SP-A>SP-D", "experimental": "as §1"}, "LDL [1]": {"tested_on": "LDL", "experiment": "TBARS assay of copper-induced oxidation of LDL", "type": "biochemical, human", "details": "for TBARS LDL Malondialdehyde: mean ± S.E.M., n=3", "experimental": "Substrates for lipid oxidation included mixtures of natural and synthetic glycerophospholipids that are found in pulmonary surfactant and human LDL. The surfactant lipid mix, composed of egg phosphatidylcholine, dipalmitoylphosphatidylcholine, cholesterol and 1-oleoyl-2-linoleoyl-sn-glycero-3-phosphocholine (1:1:0.15:0.15, w/w, respectively) (Avanti Polar Lipids) in chloroform, was dried to a film under nitrogen. Following hydration in PBS or 0.15 M NaCl for 30 min, multilamellar vesicles were generated by vigorous vortexing for 5 minutes. LDL were isolated from the plasma of normal blood donors by density gradient ultracentrifugation (density=1.019-1.063 g/ml) as previously described in Qin et al., Am. J. Physiol. 274(5 Pt 2): H1836-1840 (1998), and stored in saline-EDTA. Just prior to use, EDTA was removed by dialysis against PBS, and the concentration of LDL was determined by Lowry assay (in milligrams of LDL-associated protein).\nStock solutions of 10 mM CuSO4 were freshly prepared daily. Reaction mixtures containing 1 mg/mi surfactant lipids or 150 μg/ml LDL were incubated with 10 μM CuSO4 for 24 hours or 4 hours, respectively, in the presence of putative oxidation inhibitors or controls at 37° C. in a shaking water bath in accordance with the method of Gelvan et al., Biochim. Biophys. Acta 1035(3):353-360 (1990). Control reactions which included LDL only, 10 μM CuSO4 or protein controls of bovine serum albumin (BSA), rat IgG, recombinant MBP, rat serum and human complement C1q were performed concurrently with experimental samples. Thiobarbituric acid-reactive substances (TBARS) were measured using a method adapted from Gelvan et al., Biochim. Biophys. Acta 1035(3):353-360 (1990). Samples and 0-10 μM […] standards were developed by addition of a solution composed of 0.375% thiobarbituric acid, 15% trichloroacetic acid, and 0.25N HCl at a volume ratio of 1:2, sample: developer. Following incubation at 95° C. for 30 minutes and centrifugation at 14,000 rpm for 15 minutes, an aliquot was read at 540 nm in a spectrophotometer. For continuous assessment of lipid oxidation, the accumulation of conjugated dienes during LDL oxidation was monitored spectrophotometrically in accordance with the method of Esterbauer et al., Free Rad. Med. Biol. 13, 341-390 (1992). Mixtures of 150 μg/ml LDL, 10 μM copper, and various amounts of surfactant proteins or control proteins were placed in quartz cuvettes and allowed to oxidize at room temperature over 335 minutes. Conjugated diene formation was assessed by measuring absorbance at 234 nm in a spectrophotometer.\nThe data are set forth graphically in FIG. 3. Various concentrations of recombinant wild type SP-A (circle), mutant SP-A containing a deletion of the collagen-like domain (square) and mutant SP-A containing only the neck and C-lectin domain (CLD) (triangle) were incubated with LDL in the presence of 10 μM Cu^2+, and lipid peroxidation was quantified by TBARS assay. Data are means, n=3-4."}, "surfactant lipids [2]": {"tested_on": "surfactant lipids", "experiment": "TBARS assay of copper-induced oxidation of surfactant lipids", "type": "biochemical"}, "surfactant lipids [3]": {"tested_on": "surfactant lipids", "details": "comparison value; read-out: I.C.50 of antioxidant serum lipoprotein; cited from earlier work"}, "LDL [4]": {"tested_on": "LDL", "experiment": "Western (immunoblot) analysis of protein carbonyl derivatives formed during copper mediated LDL oxidation", "type": "biochemical, human", "details": "SP-A 10 μg/ml, SP-D 1 μg/ml; alkylated SP-A 50 μg/ml, alkylated SP-D 10 μg/ml", "experimental": "Proteins were analyzed for carbonyl modification of amino acid side groups that occur during lipid oxidation, as described in Levine et al., Methods Enzymol. 186, 464-478 (1990). Briefly, proteins that were included in reactions mixtures with LDL and 10 μM copper were derivatized to 2,4-dinitrophenylhydrazones (DNP-hydrazones) by reaction with 2,4-dinitrophenylhydrazine (DNPH), size fractionated by 8-16% SDS-PAGE under reducing conditions and electrophorectically transferred to nitrocellulose membranes (Oxyblot, Intergen). The membrane was sequentially incubated with a rabbit anti-DNP IgG and a horseradish peroxidase-conjugated goat anti-rabbit IgG. Blots were developed by HRP-dependent oxidation of a chemiluminescent substrate, and visualized using autoradiography.\nTo determine if the surfactant proteins act as sinks for reactive lipid intermediates, covalent modification of SP-A and SP-D during LDL oxidation was assessed using a western analysis technique that detects carbonyl adducts (Levine et al., Methods Enzymol. 186: 464-78 (1990)). As depicted by FIG. 4, oxidative modification of proteins that occurred during copper induced LDL oxidation were determined by Western analysis using an antibody to DNP-derivatized carbonyl moieties. Reaction mixtures contained LDL only, LDL+Cu^2+, LDL+Cu^2++albumin+10 μg/ml SP-A, LDL+Cu^2++albumin+1 μg/ml SP-D, LDL+Cu^2++albumin, LDL+Cu^2++albumin+50 μg/ml iodoacetamide treated SP-A, LDL+Cu^2++albumin+10 μg/ml iodoacetamide treated SP-D, 50 μg/ml albumin+50 μg/ml iodoacetamide treated SP-A, albumin+10 μg/ml iodoacetamide treated SP-D."}}}
{"molecule": "lysozyme: positive control protein lysozyme [reference compound]", "values": [{"measurement": "Clearing in GBS plates", "setting": "GBS", "result": "dose-dependent clearing"}, {"measurement": "Clearing in E. coli plates", "setting": "E. coli K12; 0.5 and 5.0 μg added", "result": "dose-dependent clearing"}]}
{"molecule": "recombinant mouse SP-A: recombinant mouse SP-A", "values": [{"measurement": "Inhibition of E. coli growth in presence of anti-mouse SP-A / anti-mouse SP-D antibodies", "setting": "E. coli K12", "result": "blocked"}, {"measurement": "Inhibition of E. coli growth in presence of excess LPS vesicles", "setting": "E. coli K12", "result": "blocked"}]}
{"molecule": "Clq: human complement C1q, the first component of complement [reference compound]", "values": [{"measurement": "Effect on LDL lipid oxidation", "setting": "LDL [1]; 50 μg/ml", "result": "no effect on LDL lipid oxidation"}, {"measurement": "TBARS LDL Malondialdehyde", "setting": "LDL [1]; LDL + Cu2+ + 50 μg/ml protein", "result": "4.16 ± 0.05", "unit": "µM"}, {"measurement": "Protection from oxidation of surfactant lipids", "setting": "surfactant lipids [2]; 50 μg/ml control protein", "result": "no protection from oxidation"}, {"measurement": "TBARS Surfactant lipids Malondialdehyde", "setting": "surfactant lipids [2]; Lipid + Cu2+ + 50 μg/ml protein, mean ± S.E.M., n=3", "result": "1.15 ± 0.07", "unit": "µM"}]}
{"molecule": "B1", "values": [{"measurement": "Inhibition of E. coli growth in presence of anti-mouse SP-A / anti-mouse SP-D antibodies", "setting": "E. coli K12", "result": "blocked"}, {"measurement": "Inhibition of E. coli growth in presence of excess LPS vesicles", "setting": "E. coli K12", "result": "blocked"}]}
{"molecule": "B2", "values": [{"measurement": "IC50", "setting": "surfactant lipids [3]", "result": 0.05, "unit": "µM"}]}
{"molecule": "B3", "values": [{"measurement": "TBARS LDL Malondialdehyde", "setting": "LDL [1]; LDL + Cu2+ + 10 μg/ml protein", "result": "3.92 ± 0.14", "unit": "µM"}, {"measurement": "LDL oxidation in carbonyl Western analysis", "setting": "LDL [4]", "result": "neither alkylated SP-A at 50 μg/ml or alkylated SP-D at 10 μg/ml inhibited lipid oxidation"}]}
